The source of these data is patent publication US20130337020A1, “Pharmaceutical Compositions” (Alpharma Pharmaceuticals LLC, priority 2006, published 2013).

System in one assay: not given
The following applies: in comparison to a 15 mg dose of hydrocodone.
As to `COc1ccc2c3c1O[C@H]1[C@@H](O)C=C[C@H]4[C@@H](C2)N(C)CC[C@@]341` [Codeine], the “Equianalgesic Doses of Opioids, Calculated Dose” value is 90.0 mg.
Still for that read-out and setting: the figure for `CCC(=O)C(CC(C)N(C)C)(c1ccccc1)c1ccccc1` (stereo not shown) [Methadone] is 9.0 mg.
Still for that read-out and setting: the figure for `CN1CC[C@]23CCCC[C@H]2[C@H]1Cc1ccc(O)cc13` [Levorphanol] is 1.8 mg; for Meperidine it is 135.0 mg.
For `COc1ccc2c3c1OC1C(=O)CC[C@@]4(O)[C@@H](C2)N(C)CC[C@]314` (stereo partly shown) [Oxycodone, 4,5-epoxy-14-hydroxy-3-methoxy-17-methylmorphinan-6-one], the “Equianalgesic Doses of Opioids, Calculated Dose” value is on record as 13.5 mg.
The same measure, in the same setting: the figure for `COc1ccc2c3c1OC1C(=O)CC[C@H]4[C@@H](C2)N(C)CC[C@]314` (stereo partly shown) [Hydrocodone, 4,5-epoxy-3-methoxy-17-methylmorphinan-6-one] is 15.0 mg.

The subject of another assay is opioid receptors. The following applies: cited from earlier work.
Consider `Oc1ccc2c3c1O[C@H]1[C@H](O)CC[C@@]4(O)[C@@H](C2)N(CC2CC2)CC[C@]314` [6-β-naltrexol], for which the “antagonist potency relative to naltrexone” value is recorded as 2 to 4%.
